What was measured:
[1] = test system: phosphorylation of STAT1 and STAT3; test: Western blot of STAT1/STAT3 phosphorylation in activated CD4 T cells; format: cell-based, human; details: 1 μM; CD4 T cells activated 48 hrs with IL-1β, TGF-β
Procedure: FIG. 8. […] FIG. 8A. CD4 T cells were activated for 48 hrs in the presence of IL-1β, TGF-β and 1 μM of the Example 2 compound. Western blotting analysis was used to determine the activation status of Stat3, Stat1 and pS6K (as a marker of mTORC1 activity) and the expression of GLUT1 protein. FIG. 8B. CD4 T cells were activated for 48 hrs and treated with the indicated compounds for 1.5 or 4 hrs. Western blotting analysis was used to determine the activation status of Stat3, Stat1 and pS6K (as a marker of mTORC1 activity). GLUT1/3 inhibitors downregulate phosphorylation of STAT1 and STAT3, key signaling molecules in activated T cells. In FIG. 8A. CD4 T cells were activated for 48 hrs in the presence of IL-1β, TGF-β and 1 μM of the Example 2 compound. Western blotting analysis was used to determine the activation status of Stat3, Stat1 and pS6K (as a marker of mTORC1 activity) and the expression of GLUT1 protein. CD4 T cells were activated for 48 hrs and treated with the indicated compounds in FIG. 8B for 1.5 or 4 hrs. […] IL-17 levels were measured by ELISA (R&D systems, Human IL-17 Quantikine ELISA kit). Proliferation was measured by Cell Titer Glo (Promega). Intracellular staining was performed and analyzed using the Guava EasyCyte flow cytometer. […] Protein levels and phosphorylation status were assessed by western blot analysis using antibodies purchased from Cell Signaling.

[2] = test system: TNFalpha and MCP-1 levels; test: LPS/D-galactosamine mouse model, cytokine production; format: in vivo; details: 100 mg/kg p.o.
Procedure: 100 μg LPS and 18 mg D-galactosamine were used to induce cytokine production. […] In FIG. 6, Example 2 is shown to modulate cytokine/chemokine production in response to LPS/D-galactosamine (mouse model of sepsis and liver damage). Example 2 prevents the dramatic increase of TNFalpha (FIG. 6A), a cytokine well-established as a major driver of inflammation. In line with in vitro results, Example 2 abrogates an initial increase in MCP-1 (FIG. 6B), but is unable to statistically suppress MCP1 induction at later time points (not shown). LPS Mouse Model: Performed at Pharmalegacy.

GLUT1 = target: T1, GLUT1 (Homo sapiens, UniProt P11166); test: glycolysis assay in DLD1 WT cells (rely on GLUT1); format: cell-based; details: DLD1-WT cells; 10 μM oligomycin, one hour
T1 construct: endogenous in cells; host or cells: DLD1 WT cancer cells
T1 sequence (P11166 1-492): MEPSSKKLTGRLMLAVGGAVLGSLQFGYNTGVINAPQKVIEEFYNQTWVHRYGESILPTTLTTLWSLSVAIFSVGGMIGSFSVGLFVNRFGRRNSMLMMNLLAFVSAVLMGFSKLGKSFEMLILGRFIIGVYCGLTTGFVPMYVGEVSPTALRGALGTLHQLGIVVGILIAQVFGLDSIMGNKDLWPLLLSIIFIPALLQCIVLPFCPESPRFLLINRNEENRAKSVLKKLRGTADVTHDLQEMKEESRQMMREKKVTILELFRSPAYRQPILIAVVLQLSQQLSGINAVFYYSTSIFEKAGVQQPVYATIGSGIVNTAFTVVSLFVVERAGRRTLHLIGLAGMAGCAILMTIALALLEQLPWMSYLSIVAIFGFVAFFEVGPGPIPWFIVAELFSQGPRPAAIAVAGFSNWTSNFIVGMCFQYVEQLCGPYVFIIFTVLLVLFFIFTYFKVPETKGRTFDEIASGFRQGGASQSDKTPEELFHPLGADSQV
Method in brief: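 Cells […] exposed for 1 h to inhibitor plus 10 μM oligomycin to block mitochondrial ATP; remaining glycolytic ATP read by CellTiter-Glo luminescence. IC50 derived from dose-response curves.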

- IC50 (GLUT1): 115 nM
SMILES: CCOc1ccc2nc(-c3cccc(OCC(=O)NC(C)C)c3)nc(Nc3ccc(-c4cn[nH]c4)cc3)c2c1 [Ex. 2, 2-(3-(4-((4-(1H-pyrazol-4-yl)phenyl)amino)-6-ethoxyquinazolin-2-yl)phenoxy)-N-isopropylacetamide]
- phosphorylation of STAT1 and STAT3 [1]: downregulate the phosphorylation of STAT1 and STAT3
- increase of MCP-1 levels ([2]; 2 hours post LPS/Galn): unable to prevent a statistically significant increase
- increase of MCP-1 ([2]; one hour following LPS/Galn): inhibits the increase
- increase of TNFalpha ([2]; one hour following LPS/Galn): inhibits the increase

Source: patent US11071735B2, “Treatment of inflammatory conditions and autoimmune diseases with glucose uptake inhibitors” (Kadmon Corporation, LLC, priority 2017, dated 2021)
